Assay results: paper PMC7168207, “Dibasic Derivatives of Phenylcarbamic Acid as Prospective Antibacterial Agents Interacting with Cytoplasmic Membrane” (Antibiotics, 2020)
Marks after values point to notes of the source that are not given here.

Columns and labels:
[1] = tested on: VRE 342B; test: synergy with antibiotics (FIC index, checkerboard); format: cell-based, Enterococcus faecalis; conditions: VRE 342B
Text: (§1) Representatives from various classes were chosen in order to study the potential difference in synergistic activity according to the diverse mechanisms of action and resistance of these drugs. The method of minimal fractional inhibitory concentration (FIC) index (FICI) in a microtitration plate was used. FICI ≤ 0.5 means synergy; 0.5 < FICI < 1 means additivity; 1 ≤ FICI < 4 means indifference; and FICI ≥ 4 means antagonism.
(§2) For synergy effect study, a method of fractional inhibitory concentration was used. […] Raw H was used for the evaluation of MIC(A); column 12 was used for evaluation of MIC(B). The plate was inoculated by the bacterial suspension to reach final concentration of 5 × 10^5 CFU/mL in the wells. The fractional inhibitory concentration (FIC) index was calculated using the concentrations in the first nonturbid (clear) well found in each row and column along the turbidity/nonturbidity interface. To interpret the combined effect, the lowest FICI was used. A ΣFIC ≤ 0.5 means synergy; 0.5 < ΣFIC < 1 means additivity; 1 ≤ ΣFIC < 4 means indifference; and ΣFIC ≥ 4 means antagonism. The tests were made in duplicate, and the results were averaged.

[2] = tested on: VRE 368; test: synergy with antibiotics (FIC index, checkerboard); format: cell-based, Enterococcus faecalis; conditions: Enterococcus, VRE, VRE 368; tested compound/antibiotic; read-out: MIC of each antibacterial drug alone observed in the synergy experiment
Text: as §1, §2

[3] = tested on: MRSA 63718; test: time-kill study; format: cell-based, Staphylococcus aureus; conditions: MRSA1
Text: (§3) Time-kill studies are used to evaluate the dynamics of antibacterial activity. As mentioned above, a pre-test to determine minimum bactericidal concentration (MBC) by sub-cultivation of aliquots on agar was made (see Section 3.4). […] Time-kill studies were made with methicillin-susceptible S. aureus ATCC 29213 and methicillin-resistant MRSA 63718, vancomycin-susceptible E. faecalis ATCC 29212, and all three VRE isolates. Vancomycin was used as a control (Table 6).
(§4) The method of time-kill curves was used to study the bactericidal effect of selected compounds. […] The experiment was performed with S. aureus ATCC 29213, MRSA 63718, E. faecalis ATCC 29212, and all VRE isolates. […] The tubes were inoculated by bacterial inoculum in the exponential phase of growth to get a final concentration of 7.5 × 10^6 CFU/mL. The tubes were incubated statically at 37 °C. Immediately after inoculation and after 4, 6, 8, and 24 h, 100 µL of the sample was serially diluted (1:10) in PBS. Then, 2 × 20 µL from each dilution were put onto a Mueller–Hinton agar plate and cultivated at 37 °C for 24 h. After incubation, CFUs of dilutions containing 5–50 colonies were counted. Results were expressed as a decrease of log10(CFU) in each time compared to the starting inoculum. Bactericidal effect is defined as a −3log decrease of CFU/mL compared to the growth control in time 0. The test was made in duplicate on two separate occasions, and the results were averaged. The growth curves with error bars are shown in Figures S1 and S2 in Supplementary Materials.

[4] = tested on: S. aureus ATCC 29213; test: time-kill study; format: cell-based, Staphylococcus aureus; conditions: SA
Text: as §3, §4

[5] = tested on: S. aureus ATCC 29213; test: crystal violet uptake (membrane permeability); format: cell-based, Staphylococcus aureus; conditions: 64 µg/mL, 1 h; two-way ANOVA, Tukey's test, p < 0.05
Procedure: The alternation in membrane permeability was detected by crystal violet assay. Bacterial suspension treated by compounds 1f, 1g, and 1h (all 64 µg/mL) for 1 h was prepared. The uptake of crystal violet was expressed as a percentage compared to the original crystal violet solution.
The method of crystal violet uptake was used to study membrane alteration. Bacterial suspension was cultivated to log phase in CaMH and then harvested at 4500 rpm for 5 min. The cells were washed twice and resuspended in PBS containing 64 µg/mL of the tested compounds. […] A growth control without antibiotics and a control containing the same amount of DMSO as treated tubes were included. The tubes were cultivated at 37 °C for 1 h. After that, the tubes were centrifuged at 4500 rpm for 15 min and washed twice in PBS. The cells were resuspended in PBS containing crystal violet (10 µg/mL). After 15 min incubation at 37 °C and centrifugation (15 min, 4500 rpm), the absorbance of supernatant at 595 nm was measured. The experiment was repeated three times, and the results were averaged. The percentage of crystal violet uptake was counted according to the equation:(1) % of uptake = OD595 of sample/OD595 of crystal violet solution × 100

[6] = set-up: method as in PMID 30274224; conditions: cited from earlier work
[7] = set-up: method as in PMID 30274224; conditions: methanolic solutions, c = 8.0 × 10^−5 M; cited from earlier work

Structure (SMILES): CCCCCCCOc1cccc(NC(=O)OC(CN(CCC)CCC)CN2CCCC2)c1.Cl.Cl (stereo not drawn) [1h, 1-[3-(Dipropylammonio)-2-({[3-(heptyloxy)phenyl]carbamoyl}oxy)propyl]pyrrolidinium dichloride]
- MIC ([1]; Enterococcus, tested compound/antibiotic, read-out: MIC of each antibacterial drug alone observed in the synergy experiment): 8 µg/mL
- concentrations of the tested compound/clinically used antibiotic providing additivity or synergy ([1]; in the combination of that line): 2 µg/mL
- MIC [2]: 4 µg/mL
- Log10 Difference in CFU/mL from Inoculum ([3]; 1 × MIC, 4 h): −0.73 * log10 CFU/mL
- Log10 Difference in CFU/mL from Inoculum ([3]; 1 × MIC, 6 h): −0.11 log10 CFU/mL
- Log10 Difference in CFU/mL from Inoculum ([3]; 1 × MIC, 8 h): 0.98 log10 CFU/mL
- Log10 Difference in CFU/mL from Inoculum ([3]; 1 × MIC, 24 h): 1.58 log10 CFU/mL
- Log10 Difference in CFU/mL from Inoculum ([3]; 2 × MIC, 4 h): −0.92 * log10 CFU/mL
- Log10 Difference in CFU/mL from Inoculum ([3]; 2 × MIC, 6 h): −0.42 * log10 CFU/mL
- Log10 Difference in CFU/mL from Inoculum ([3]; 2 × MIC, 8 h): −0.13 log10 CFU/mL
- Log10 Difference in CFU/mL from Inoculum ([3]; 2 × MIC, 24 h): 1.62 log10 CFU/mL
- Log10 Difference in CFU/mL from Inoculum ([3]; 4 × MIC, 4 h): −2.48 * log10 CFU/mL
- Log10 Difference in CFU/mL from Inoculum ([3]; 4 × MIC, 6 h): −2.40 * log10 CFU/mL
- Log10 Difference in CFU/mL from Inoculum ([3]; 4 × MIC, 8 h): −2.08 * log10 CFU/mL
- Log10 Difference in CFU/mL from Inoculum ([3]; 4 × MIC, 24 h): 1.35 log10 CFU/mL
- Log10 Difference in CFU/mL from Inoculum ([4]; 1 × MIC, 4 h): 0.08 log10 CFU/mL
- Log10 Difference in CFU/mL from Inoculum ([4]; 1 × MIC, 6 h): 0.31 log10 CFU/mL
- Log10 Difference in CFU/mL from Inoculum ([4]; 1 × MIC, 8 h): 0.50 log10 CFU/mL
- Log10 Difference in CFU/mL from Inoculum ([4]; 1 × MIC, 24 h): 2.07 log10 CFU/mL
- Log10 Difference in CFU/mL from Inoculum ([4]; 2 × MIC, 4 h): 0.05 log10 CFU/mL
- Log10 Difference in CFU/mL from Inoculum ([4]; 2 × MIC, 6 h): 0.10 log10 CFU/mL
- Log10 Difference in CFU/mL from Inoculum ([4]; 2 × MIC, 8 h): 0.05 log10 CFU/mL
- Log10 Difference in CFU/mL from Inoculum ([4]; 2 × MIC, 24 h): 2.01 log10 CFU/mL
- Log10 Difference in CFU/mL from Inoculum ([4]; 4 × MIC, 4 h): −0.25 log10 CFU/mL
- Log10 Difference in CFU/mL from Inoculum ([4]; 4 × MIC, 6 h): −0.13 log10 CFU/mL
- Log10 Difference in CFU/mL from Inoculum ([4]; 4 × MIC, 8 h): −0.08 log10 CFU/mL
- Log10 Difference in CFU/mL from Inoculum ([4]; 4 × MIC, 24 h): 1.93 log10 CFU/mL
- crystal violet uptake compared with 1% Tween 20 (positive control) [5]: No statistically significant difference
- γ (surface tension, relative surface activity) [6]: 0.05786 N/m
- log ε2 (Ch-T) [7]: 4.27
